These cell lines were tested with O=C(Nc1cc(C(F)(F)F)cc(C(F)(F)F)c1)c1cc(Cl)ccc1O [IMD-0354] + CC(=O)c1c(C)c2cnc(Nc3ccc(N4CCNCC4)cn3)nc2n(C2CCCC2)c1=O [Palbociclib] (partner 0.5 µM) (assay: relative viability (nuclei count vs DMSO), 5 days (fraction); higher = more cells survive). Conditions: first compound 0.4 µM.
Method in brief: (§1)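 Lung cancer cell lines in 1536-well plates got either a single drug or a fixed anchor-drug dose together with five library-drug doses (not always all listed) in √10 steps, by pin tool, on the day after seeding. Nuclei were counted after 5 days, and relative viability is the treated-to-vehicle ratio of nuclei counts. Values are medians of duplicate plates.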
Cell Line NCI-H2347 has a relative viability of 0.362.
Work on SW 1573 yielded a relative viability of 0.237.
With NCI-H1793 the relative viability was 0.211.
For 201T, the relative viability was 0.294.
NCI-H1915 gave a relative viability of 0.424.
HCC-827 showed a relative viability of 0.407.
For LXF-289, the relative viability was 0.454.
Cell Line NCI-H23 has a relative viability of 0.349.
In the case of NCI-H647, the relative viability is reported as 0.174.
With CAL-12T the relative viability was 0.325.
NCI-H1651 showed a relative viability of 0.415.
With EPLC-272H the relative viability was 0.349.
For NCI-H2228, the relative viability was 0.683.
NCI-H1792 was tested, and the relative viability was 0.258.
NCI-H1355 showed a relative viability of 0.378.
With NCI-H3122 the relative viability was 0.213.
Work on NCI-H1437 yielded a relative viability of 0.166.
NCI-H1755 gave a relative viability of 0.419.
NCI-H2023 showed a relative viability of 0.273.
HCC-15 gave a relative viability of 0.627.
In the case of NCI-H1944, the relative viability is reported as 0.341.
For PC-14, the relative viability was 0.317.

Same assay, conditions: first compound 1.265 µM
NCI-H522 gave a relative viability of 0.994.
NCI-H727 was tested, and the relative viability was 0.709.
NCI-H1650 gave a relative viability of 0.127.
In the case of NCI-H1993, the relative viability is reported as 0.443.
With SK-LU-1 the relative viability was 0.239.
NCI-H838 gave a relative viability of 0.186.
LCLC-103H showed a relative viability of 0.386.
NCI-H520 was tested, and the relative viability was 0.136.
Cell Line NCI-H2126 has a relative viability of 0.316.
EMC-BAC-2 was tested, and the relative viability was 0.35.
In the case of NCI-H2085, the relative viability is reported as 0.281.
HCC-366 showed a relative viability of 0.0918.
For NCI-H1666, the relative viability was 0.57.
Work on NCI-H1395 yielded a relative viability of 0.397.
Cell Line NCI-H2087 has a relative viability of 0.104.
For NCI-H2342, the relative viability was 0.538.
LK-2 gave a relative viability of 0.877.
With H3255 the relative viability was 0.275.
COR-L23 gave a relative viability of 0.122.
For COR-L 105, the relative viability was 0.33.
LOU-NH91 was tested, and the relative viability was 0.188.
Work on ChaGo-K-1 yielded a relative viability of 0.473.
NCI-H358 was tested, and the relative viability was 0.0987.
NCI-H2405 gave a relative viability of 0.282.
For HOP-62, the relative viability was 0.266.
Work on HCC-44 yielded a relative viability of 0.661.
SW 900 showed a relative viability of 0.187.
With LU99A the relative viability was 0.279.
Cell Line BEN has a relative viability of 0.411.
Cell Line HARA has a relative viability of 0.195.
NCI-H1648 was tested, and the relative viability was 0.21.
Work on HCC-78 yielded a relative viability of 0.383.
With NCI-H322M the relative viability was 0.39.
LCLC-97TM1 showed a relative viability of 0.174.
In the case of NCI-H2009, the relative viability is reported as 0.103.
A-427 showed a relative viability of 0.157.
NCI-H441 was tested, and the relative viability was 0.12.
Cell Line NCI-H661 has a relative viability of 0.276.
Cell Line NCI-H1734 has a relative viability of 0.232.
NCI-H460 showed a relative viability of 0.024.
NCI-H2347 gave a relative viability of 0.41.
Work on SW 1573 yielded a relative viability of 0.147.
With NCI-H1793 the relative viability was 0.191.
In the case of 201T, the relative viability is reported as 0.375.
Cell Line NCI-H1915 has a relative viability of 0.234.
For HCC-827, the relative viability was 0.36.
LXF-289 showed a relative viability of 0.435.
NCI-H23 gave a relative viability of 0.153.
NCI-H647 gave a relative viability of 0.056.
CAL-12T showed a relative viability of 0.189.
In the case of NCI-H1651, the relative viability is reported as 0.516.
Cell Line EPLC-272H has a relative viability of 0.356.
NCI-H2228 showed a relative viability of 0.21.
NCI-H1792 was tested, and the relative viability was 0.579.
NCI-H1355 was tested, and the relative viability was 0.195.
With NCI-H3122 the relative viability was 0.163.
Cell Line NCI-H1437 has a relative viability of 0.141.
In the case of NCI-H1755, the relative viability is reported as 0.396.
NCI-H2023 was tested, and the relative viability was 0.316.
HCC-15 gave a relative viability of 0.289.
For NCI-H1944, the relative viability was 0.382.
Cell Line PC-14 has a relative viability of 0.129.

Same assay, conditions: first compound 4 µM
For NCI-H522, the relative viability was 0.458.
NCI-H727 gave a relative viability of 0.455.
For NCI-H1650, the relative viability was 0.181.
NCI-H1993 gave a relative viability of 0.406.
With SK-LU-1 the relative viability was 0.296.
For NCI-H838, the relative viability was 0.151.
LCLC-103H was tested, and the relative viability was 0.331.
Work on NCI-H520 yielded a relative viability of 0.121.
NCI-H2126 gave a relative viability of 0.311.
With EMC-BAC-2 the relative viability was 0.34.
With NCI-H2085 the relative viability was 0.393.
HCC-366 showed a relative viability of 0.0749.
NCI-H1666 showed a relative viability of 0.495.
Work on NCI-H1395 yielded a relative viability of 0.418.
For NCI-H2087, the relative viability was 0.0948.
With NCI-H2342 the relative viability was 0.438.
LK-2 gave a relative viability of 0.185.
H3255 gave a relative viability of 0.274.
COR-L23 showed a relative viability of 0.12.
In the case of COR-L 105, the relative viability is reported as 0.284.
For LOU-NH91, the relative viability was 0.243.
ChaGo-K-1 showed a relative viability of 0.236.
NCI-H358 showed a relative viability of 0.101.
In the case of NCI-H2405, the relative viability is reported as 0.261.
Work on HOP-62 yielded a relative viability of 0.0933.
Cell Line HCC-44 has a relative viability of 0.452.
SW 900 was tested, and the relative viability was 0.248.
With LU99A the relative viability was 0.179.
With BEN the relative viability was 0.318.
Work on HARA yielded a relative viability of 0.204.
Cell Line NCI-H1648 has a relative viability of 0.259.
HCC-78 was tested, and the relative viability was 0.424.
NCI-H322M was tested, and the relative viability was 0.41.
Cell Line LCLC-97TM1 has a relative viability of 0.103.
NCI-H2009 showed a relative viability of 0.112.
With A-427 the relative viability was 0.158.
NCI-H441 gave a relative viability of 0.146.
NCI-H661 was tested, and the relative viability was 0.253.
In the case of NCI-H1734, the relative viability is reported as 0.196.
With NCI-H460 the relative viability was 0.04.
NCI-H2347 gave a relative viability of 0.405.
With SW 1573 the relative viability was 0.121.
With NCI-H1793 the relative viability was 0.225.
Cell Line 201T has a relative viability of 0.28.
NCI-H1915 showed a relative viability of 0.143.
With HCC-827 the relative viability was 0.222.
Work on LXF-289 yielded a relative viability of 0.0922.
In the case of NCI-H23, the relative viability is reported as 0.189.
With NCI-H647 the relative viability was 0.0731.
For CAL-12T, the relative viability was 0.164.
NCI-H1651 showed a relative viability of 0.182.
Work on EPLC-272H yielded a relative viability of 0.131.
With NCI-H2228 the relative viability was 0.322.
NCI-H1792 gave a relative viability of 0.431.
For NCI-H1355, the relative viability was 0.253.
Work on NCI-H3122 yielded a relative viability of 0.135.
Work on NCI-H1437 yielded a relative viability of 0.162.
For NCI-H1755, the relative viability was 0.224.
NCI-H2023 showed a relative viability of 0.241.
HCC-15 gave a relative viability of 0.1.
Work on NCI-H1944 yielded a relative viability of 0.139.
Work on PC-14 yielded a relative viability of 0.189.

Each cell line was assayed with O=C(Nc1cc(C(F)(F)F)cc(C(F)(F)F)c1)c1cc(Cl)ccc1O [IMD-0354] + O=C(c1cc(Cc2n[nH]c(=O)c3ccccc23)ccc1F)N1CCN(C(=O)C2CC2)CC1 [Olaparib] (partner 8 µM) in the same assay as above. Conditions: first compound 0.04 µM.
Method in brief: as §1
For NCI-H522, the relative viability was 0.517.
In the case of NCI-H727, the relative viability is reported as 0.574.
NCI-H1650 showed a relative viability of 0.827.
EBC-1 showed a relative viability of 0.616.
With NCI-H1703 the relative viability was 0.405.
With NCI-H1993 the relative viability was 0.917.
Work on SK-LU-1 yielded a relative viability of 0.481.
NCI-H838 gave a relative viability of 0.778.
LCLC-103H showed a relative viability of 0.79.
With NCI-H520 the relative viability was 0.325.
NCI-H2126 showed a relative viability of 1.
EMC-BAC-2 was tested, and the relative viability was 0.456.
Work on NCI-H2085 yielded a relative viability of 0.785.
Calu-6 showed a relative viability of 0.555.
HCC-366 showed a relative viability of 0.363.
For NCI-H1666, the relative viability was 0.752.
For NCI-H596, the relative viability was 0.758.

Reference: the supplement of paper PMC10307832
